According to publication PMC8175350, “Drug repurposing screens identify chemical entities for the development of COVID-19 interventions” (Nature Communications, 2021):
Where a name gives a salt, the structure may show the parent alone. Read-outs that look alike come from different tables or passages of the source.

Assays:
HeLa-ACE2 cells [1] = details: for EC50: read-out: HeLa-ACE2 cell count EC50 GeoMean
HeLa-ACE2 cells [2] = assay: cells; details: Homo sapiens
in vitro = details: human, Calu-3 uninfected cytotoxicity CC50 GeoMean (µM)
SARS-CoV-2 [3] = assay: microbe, parasite or virus in culture; format: cell-based; details: for Emax: Severe acute respiratory syndrome coronavirus 2, Calu-3, 48 h
Calu-3 cells [4] = test system: Calu-3 cells
[5] = Uninfected HeLa-ACE2 24 h live/dead cytotoxicity counter screen; format: cell-based, human; details: human, uninfected HeLa-ACE2 cells, read-out: HeLa-ACE2 uninfected cytotoxicity CC50 GeoMean
HeLa-ACE2 cells [6] = assay: as above; format: cell-based, human; details: for CC50: read-out: HeLa-ACE2 uninfected cytotoxicity CC50 GeoMean
SARS-CoV-2 [7] = assay: microbe, parasite or virus in culture; format: cell-based; details: for EC50: read-out: HeLa-ACE2 CoV-2 EC50 GeoMean
Calu-3 cells [8] = assay: cells; details: Homo sapiens; for Emax: Calu-3, 48 h
Calu-3 cells [9] = assay: Uninfected Calu-3 48 h Cell-Titer Glo cytotoxicity counter screen; details: for CC50: read-out: Calu-3 uninfected cytotoxicity CC50 GeoMean
Calu-3 cells [10] = details: for Calu-3 cell count Sinf Average: curve-fit effect at infinite concentration; for EC50: read-out: Calu-3 cell count EC50 GeoMean
HepG2 = HepG2 72 h CellTiter-Glo cytotoxicity; details: 72 h
SARS-CoV-2 [11] = format: cell-based; details: combination with remdesivir
SARS-CoV-2 [12] = assay: microbe, parasite or virus in culture; format: cell-based
HeLa-ACE2 cells [13] = assay: cells; format: cell-based, human; details: read-out: HeLa-ACE2 TOA cell count EC50 GeoMean
HEK293T = HEK293T 72 h CellTiter-Glo cytotoxicity; details: 72 h
SARS-CoV-2 [14] = format: cell-based
[15] = Uninfected Calu-3 48 h Cell-Titer Glo cytotoxicity counter screen; details: human, uninfected Calu-3 cells, Calu-3 uninfected cytotoxicity CC50 GeoMean, unrounded geometric mean
[16] = curve-fit effect at infinite concentration, average
[17] = unrounded geometric mean, read-out: Calu-3 CoV-2 EC50 GeoMean
[18] = curve plateau at infinite concentration

## CC/C(=C(/c1ccc(/C=C/C(=O)O)cc1)c1ccc2[nH]ncc2c1)c1ccc(F)cc1Cl [ARN-810]
HeLa-ACE2 cells [1]; Sinf average of the curves
  HeLa-ACE2 cell count Sinf Average (%): -100%
HeLa-ACE2 cells [2]; HeLa-ACE2, read-out: HeLa-ACE2 cell count EC50 GeoMean (µM), geometric mean of replicates
  EC50: > 9.59 µM
In vitro
  CC50 at 48 h: > 23.8 µM
SARS-CoV-2 [3]; Sinf average of the curves, read-out: Calu-3 CoV-2 Sinf Average (%)
  Emax: 71%
SARS-CoV-2 [3]; Severe acute respiratory syndrome coronavirus 2, Calu-3, geometric mean of replicates, read-out: Calu-3 CoV-2 EC50 GeoMean
  EC50: 1.1 µM
Calu-3 cells [4]
  uninfected Calu-3 CC50 [μM]: > 23.843 ×÷ 1.22 (n=3) μM
Calu-3 cells [4]; human, 48 h
  Calu-3 uninfected cytotoxicity Sinf Average (%): -89%
[5]; geometric mean of replicates
  CC50 at 24 h: 11 µM
HeLa-ACE2 cells [6]; Sinf average of the curves
  HeLa-ACE2 uninfected cytotoxicity Sinf Average (%): -99%
SARS-CoV-2 [7]; Severe acute respiratory syndrome coronavirus 2, HeLa-ACE2, geometric mean of replicates
  EC50: > 9.59 µM
Calu-3 cells [8]; read-out: Calu-3 cell count Sinf Average (%)
  Emax: 79%
Calu-3 cells [8]; Calu-3, read-out: Calu-3 cell count EC50 GeoMean (µM), geometric mean of replicates
  EC50: > 3.06 µM

## COc1ccc(C[C@H]2NC[C@H](O)[C@H]2OC(C)=O)cc1 [Anisomycin]
HeLa-ACE2 cells [1]; [16]
  HeLa-ACE2 cell count Sinf Average: -103%
HeLa-ACE2 cells [1]; unrounded geometric mean
  EC50: 0.636 µM
SARS-CoV-2 [3]; [16]
  Calu-3 CoV-2 Sinf Average: -98%
SARS-CoV-2 [3]; [17]
  EC50: 0.127 µM
Calu-3 cells [9]; [16]
  Calu-3 uninfected cytotoxicity Sinf Average: -66%
HeLa-ACE2 cells [6]; [16]
  HeLa-ACE2 uninfected cytotoxicity Sinf Average: -98%
SARS-CoV-2 [7]; [16]
  HeLa-ACE2 CoV-2 Sinf Average: -102%
SARS-CoV-2 [7]; unrounded geometric mean
  EC50: 0.0664 µM
Calu-3 cells [10]
  Calu-3 cell count Sinf Average: 37%
Calu-3 cells [10]; unrounded geometric mean
  EC50: > 2.46 µM

## CN(C)CC1=C[CH]([Fe][CH]2C=CC=C2)C=C1CNc1ccnc2cc(Cl)ccc12 (stereo not shown) [Ferroquine]
HeLa-ACE2 cells [1]; [18]
  HeLa-ACE2 cell count Sinf Average: -53%
HeLa-ACE2 cells [1]; detail block
  EC50: > 6.8 µM
HepG2
  HepG2 72-hour cytotoxicity Sinf Average: -100%
HepG2; read-out: HepG2 72-hour cytotoxicity CC50 GeoMean
  CC50: 4.72 µM
SARS-CoV-2 [3]; [18]
  Calu-3 CoV-2 Sinf Average: -100%
SARS-CoV-2 [3]; read-out: Calu-3 CoV-2 EC50 GeoMean
  EC50: > 9.98 µM
Calu-3 cells [9]; [18]
  Calu-3 uninfected cytotoxicity Sinf Average: -100%
Calu-3 cells [9]; detail block
  CC50: 17.5 µM
SARS-CoV-2 [11]
  HeLa-ACE2 synergy score with remdesivi: -2.076 δ
HeLa-ACE2 cells [6]; [18]
  HeLa-ACE2 uninfected cytotoxicity Sinf Average: -100%
HeLa-ACE2 cells [6]; detail block
  CC50: 13.4 µM
SARS-CoV-2 [12]
  TOA:HeLa-ACE2 EC50 Ratio: 7.345
SARS-CoV-2 [12]; [18]
  HeLa-ACE2 TOA CoV-2 Sinf Average: -100%
SARS-CoV-2 [12]; read-out: HeLa-ACE2 TOA CoV-2 EC50 GeoMean
  EC50: > 9.59 µM
HeLa-ACE2 cells [13]
  EC50: > 9.59 µM
SARS-CoV-2 [7]; [18]
  HeLa-ACE2 CoV-2 Sinf Average: -97%
SARS-CoV-2 [7]; detail block
  EC50: 1.31 µM
SARS-CoV-2 [7]; selectivity index, uninfected HeLa-ACE2 CC50 / SARS-CoV-2 EC50
  HeLa-ACE2 SI: 10.29
Calu-3 cells [10]; detail block
  EC50: > 9.98 µM
HEK293T
  HEK293T 72-hour cytotoxicty Sinf Average: -100%
HEK293T; read-out: HEK293T 72-hour cytotoxicty CC50 GeoMean
  CC50: 7.24 µM

## N=C(N)c1ccc2cc(OC(=O)c3ccc(N=C(N)N)cc3)ccc2c1 [Nafamostat mesylate]
HeLa-ACE2 cells [2]; HeLa-ACE2, read-out: HeLa-ACE2 cell count EC50 GeoMean, unrounded geometric mean
  EC50: > 9.59 µM
SARS-CoV-2 [3]; curve-fit effect at infinite concentration, average, read-out: Calu-3 CoV-2 Sinf Average
  Emax: 93%
SARS-CoV-2 [3]; Severe acute respiratory syndrome coronavirus 2, Calu-3, unrounded geometric mean, read-out: Calu-3 CoV-2 EC50 GeoMean
  EC50: 0.024 µM
SARS-CoV-2 [3]; Severe acute respiratory syndrome coronavirus 2, Calu-3, geomean, read-out: SARS-CoV-2 EC50
  EC50: 0.024 µM
SARS-CoV-2 [14]
  effect on viral replication in ALI-HBECs: inhibited viral replication
[15]
  CC50 at 48 h: > 29.9 µM
Calu-3 cells [9]; [16]
  Calu-3 uninfected cytotoxicity Sinf Average: -100%
[5]; unrounded geometric mean
  CC50 at 24 h: > 39.8 µM
SARS-CoV-2 [7]; Severe acute respiratory syndrome coronavirus 2, HeLa-ACE2, unrounded geometric mean
  EC50: > 9.59 µM
Calu-3 cells [8]; read-out: Calu-3 cell count Sinf Average
  Emax: 100%
Calu-3 cells [8]; Calu-3, read-out: Calu-3 cell count EC50 GeoMean, unrounded geometric mean
  EC50: 0.04 µM
Calu-3 cells [8]; Calu-3, read-out: cell count EC50, Calu-3, geomean, ^↑ = increasing dose-response curve
  EC50: 0.04 µM

## NS(=O)(=O)c1ccc(N2N=C(C(F)(F)F)CC2c2c[nH]c3c(Cl)cccc23)cc1 (stereo not shown) [ON-09310]
HeLa-ACE2 cells [1]; [16]
  HeLa-ACE2 cell count Sinf Average: -100%
HeLa-ACE2 cells [1]; unrounded geometric mean
  EC50: > 9.33 µM
SARS-CoV-2 [3]; [16]
  Calu-3 CoV-2 Sinf Average: -95%
SARS-CoV-2 [3]; [17]
  EC50: 1.81 µM
Calu-3 cells [9]; [16]
  Calu-3 uninfected cytotoxicity Sinf Average: -97%
Calu-3 cells [9]; unrounded geometric mean
  CC50: 16.9 µM
HeLa-ACE2 cells [6]; [16]
  HeLa-ACE2 uninfected cytotoxicity Sinf Average: -103%
HeLa-ACE2 cells [6]; unrounded geometric mean
  CC50: 8.2 µM
SARS-CoV-2 [7]; [16]
  HeLa-ACE2 CoV-2 Sinf Average: -100%
SARS-CoV-2 [7]; unrounded geometric mean
  EC50: 3.72 µM
Calu-3 cells [10]
  Calu-3 cell count Sinf Average: 100%
Calu-3 cells [10]; unrounded geometric mean
  EC50: > 8.32 µM
